Patent US12545637B2, “Extrahepatic targeted cationic lipid compound with high efficiency and low toxicity and its composition” (BEIJING YOUCARE KECHUANG PHARMACEUTICAL TECHNOLOGY CO., LTD., priority 2023, dated 2026)
“And” between values parts separate entries of the source, which are not always exact repeats. Equal entries are not always repeated.

Tests used:
[1] = Particle size and polydispersity index (PDI) of lipid nanoparticles by dynamic light scattering; format: physicochemical; conditions: for PDI: LNP formulation of the cationic lipid, 25° C.; for Particle size: LNP formulation of the cationic lipid/DSPC/cholesterol/DMG-PEG2000 49:10:39.5:1.5, 25° C.
Protocol: The particle size and polydispersity index (PDI) were determined by dynamic light scattering using Malvern laser particle size analyzer.
10 μL of the liposome solution was weighed, diluted to 1 mL with RNase-free deionized water, and added to the sample pool. Each sample was measured in triplicate. The measurement conditions were: […] scattering angle, and 25° C.

[2] = system: 293T cells; experiment: Cell survival rate assay (CCK-8); format: cell-based; conditions: for Cell survival rate: LNP with 1.5 μg Fluc-mRNA, 24 hours, CCK-8; for cell survival rate higher than ALC-0315: difference vs ALC-0315; for cell survival rate higher than HIMA: difference vs HIMA (HHMA); for cell survival rate higher than Lipofectamine 3000: difference vs Lipofectamine 3000; for cell survival rate higher than SM-102: difference vs SM-102; for cell survival rate higher than YK-404: difference vs YK-404; for cell survival rate higher than YK-405: difference vs YK-405; for cell survival rate higher than YK-406: difference vs YK-406; for cell survival rate higher than YK-408: difference vs YK-408; for cell survival rate higher than YK-409: difference vs YK-409; for cell survival rate higher than YK-410: difference vs YK-410; for cell survival rate higher than YK-411: difference vs YK-411; for cell survival rate higher than YK-412: difference vs YK-412; for cell survival rate higher than YK-413: difference vs YK-413; for cell survival rate higher than YK-414: difference vs YK-414; for cell survival rate higher than YK-415: difference vs YK-415; for cell survival rate higher than YK-416: difference vs YK-416; for cell survival rate higher than YK-417: difference vs YK-417; for cell survival rate higher than YK-418: difference vs YK-418; for cell survival rate higher than YK-419: difference vs YK-419; for cell survival rate higher than YK-420: difference vs YK-420; for cell survival rate higher than YK-421: difference vs YK-421; for cell survival rate higher than YK-424: difference vs YK-424; for cell survival rate higher than compound 21: difference vs compound 21; for cell survival rate higher than compound 23: difference vs compound 23; for cytotoxicity reduced compared with YK-411: rounded summary statement vs YK-411
Protocol: (§1) Cell recovery and passage: 293T cells were recovered, cultured in a culture dish, and passaged to the required number of cells.
(§2) Seeding plate: The cells in the culture dish were digested and counted. Cells were spread in a 96-well plate at 10,000 cells per well and in a 12-well plate at 150,000 cells per well. Cells were cultured overnight until the cells adhered to the wall.
An LNP formulation containing 1.5 μg of Fluc-mRNA (prepared according to example 4, the carrier components of the LNP formulation were cationic lipid, neutral lipid, structured lipid and polymer-conjugated lipid at a molar ratio of 49:10:39.5:1.5, wherein the cationic lipid was listed in Table 1) and the formulation of Lipofectamine 3000 were added to the cell culture medium of a 96-well plate, and further cultivated for 24 hours. 10 μL of CCK-8 solution was then added to each well, and the culture plate was incubated in an incubator for 1 hour. The absorbance at 450 nm was measured by a microplate reader.

[3] = system: 293T cells; experiment: Cell transfection test of LNP formulation of eGFP-mRNA (optimization of preparation conditions); format: cell-based; conditions: for transfection efficiency at different molar ratios of polymer-conjugated lipid DMG-PEG2000 to carrier: 0.5% to 15%; for transfection effect at different molar ratios of cationic lipid, neutral lipid, structured lipid and polymer-conjugated lipid: 75:5:15:5 to 25:5:65:5
Protocol: The cationic lipid compound YK-407 synthesized in Example 1 was dissolved in ethanol with DSPC (AVT (Shanghai) Pharmaceutical Technology Co., Ltd.), cholesterol (AVT (Shanghai) Pharmaceutical Technology Co., Ltd.) and DMG-PEG2000 according to a molar ratio of 49:10:39.5:1.5, respectively, to prepare an ethanol lipid solution. The ethanol lipid solution was quickly added to citrate buffer (pH=4-5) by ethanol injection method, and vortexed for 30s for later use. eGFP-mRNA was diluted in citrate buffer (pH=4-5) to give an aqueous mRNA solution. A certain volume of liposome solution and mRNA aqueous solution were used to prepare liposomes at weight ratios of total lipids to mRNA of 5:1, 10:1, 15:1, 20:1, 30:1 and 35:1, respectively. The mixtures were sonicated at 25° C. for 15 min (with an ultrasonic frequency of 40 kHz and an ultrasonic power of 800 W). The resulted liposomes were diluted to 10 times volume with PBS, and then ultrafiltered with a 300KDa ultrafiltration tube to remove ethanol. Then the volume was fixed to a certain volume with PBS to give an LNP formulation encapsulating eGFP-mRNA using cationic lipid YK-407/DSPC/cholesterol/DMG-PEG2000 (49:10:39.5:1.5 in molar percentage).
The LNP formulation encapsulating eGFP-mRNA was prepared according to the method in 1, wherein the molar ratios of cationic lipid YK-407 to neutral lipid DSPC were 1:1, 3:1, 3.5:1, 4:1, 4.5:1, 4.9:1, 10:1, 15:1 and 20:1.
The LNP formulation encapsulating eGFP-mRNA was prepared according to the method in 1, wherein the cationic lipid in the carrier was YK-407, and the molar ratios of the polymer-conjugated lipid DMG-PEG2000 to the carrier were 0.5%, 1.5%, 3.5%, 5%, 10% and 15%, respectively.
The LNP formulation encapsulating eGFP-mRNA was prepared according to the method in 1, wherein the molar ratios of cationic lipid YK-407, neutral lipid DSPC, structured lipid cholesterol and polymer-conjugated lipid DMG-PEG2000 were 75:5:15:5, 49:10:39.5:1.5, 45:10:43.5:1.5, 45:25:20:10, 40:10:48.5:1.5, 35:10:53.5:1.5 and 25:5:65:5, respectively.
as §1, §2
Cell transfection test: The LNP formulation containing 1.5 μg of eGFP-mRNA prepared in Example 2 (the cationic lipid in the carrier was YK-407) and the Lipofectamin 3000 formulation of eGFP-mRNA were added respectively to the cell culture medium of the 12-well plate, and further incubated for 24 hours. The transfection efficiency of different samples was then investigated according to the fluorescence intensity by observing with a fluorescence microscope.

SMILES	PDI [1] [%]	Particle size [1] [nm]	Cell survival rate [2] [%]	cell survival rate higher than ALC-0315 [2] [%]	cell survival rate higher than HIMA [2] [%]	cell survival rate higher than Lipofectamine 3000 [2] [%]	cell survival rate higher than SM-102 [2]	cell survival rate higher than YK-404 [2] [%]	cell survival rate higher than YK-405 [2] [%]	cell survival rate higher than YK-406 [2] [%]	cell survival rate higher than YK-408 [2] [%]	cell survival rate higher than YK-409 [2] [%]	cell survival rate higher than YK-410 [2] [%]	cell survival rate higher than YK-411 [2] [%]	cell survival rate higher than YK-412 [2] [%]	cell survival rate higher than YK-413 [2] [%]	cell survival rate higher than YK-414 [2] [%]	cell survival rate higher than YK-415 [2] [%]	cell survival rate higher than YK-416 [2] [%]	cell survival rate higher than YK-417 [2] [%]	further results
CCCCCCCCC(CCCCCCCC)COC(=O)CCCCCN(CCCO)CCN(CCCO)CCCCCC(=O)OCC(CCCCCCCC)CCCCCCCC [YK-422, di(2-octyldecyl) 6,6′-(ethane-1,2-diyl-bis((3-hydroxypropyl)azanediyl))dihexanoate]	13.9	146	70.48	23.27	6.21	48.82	2.58%	28.36	28.62	45.52	28.17	24.37	25.56	54.15	16.34	23.28	41.73	9.32	29.51	49.14	cell survival rate higher than YK-418 [2]: 49.43%; cell survival rate higher than YK-419 [2]: 31.56%; cell survival rate higher than YK-420 [2]: 34.89%; cell survival rate higher than YK-421 [2]: 34.77%; cell survival rate higher than YK-424 [2]: 42.55%; cell survival rate higher than compound 21 [2]: 2.64%; cell survival rate higher than compound 23 [2]: 1.37%; cytotoxicity reduced compared with YK-411 [2]: 50%; transfection efficiency at different molar ratios of polymer-conjugated lipid DMG-PEG2000 to carrier [3]: same results; transfection effect at different molar ratios of cationic lipid, neutral lipid, structured lipid and polymer-conjugated lipid [3]: same results
CCCCCCCCC(CCCCCCCC)COC(=O)CCCCCN(CCCO)CCCN(CCCO)CCCCCC(=O)OCC(CCCCCCCC)CCCCCCCC [YK-423, di(2-octyldecyl) 6,6′-(propan-1,3-diyl-bis((3-hydroxypropyl)azanediyl))dihexanoate]	11.7	175	71.14	23.93	6.87	49.48	3.24%	29.02	29.28	46.18	28.83	25.03	26.22	54.81	17.00	23.94	42.39	9.98	30.17	49.80	cell survival rate higher than YK-418 [2]: 50.09%; cell survival rate higher than YK-419 [2]: 32.22%; cell survival rate higher than YK-420 [2]: 35.55%; cell survival rate higher than YK-421 [2]: 35.43%; cell survival rate higher than YK-424 [2]: 43.21%; cell survival rate higher than compound 21 [2]: 3.30%; cell survival rate higher than compound 23 [2]: 2.03%; cytotoxicity reduced compared with YK-411 [2]: 50%; transfection efficiency at different molar ratios of polymer-conjugated lipid DMG-PEG2000 to carrier [3]: same results; transfection effect at different molar ratios of cationic lipid, neutral lipid, structured lipid and polymer-conjugated lipid [3]: same results
CCCCCCCCC(CCCCCCCC)OC(=O)CCCCCCCN(CCO)CCN(CCO)CCCCCCCC(=O)OC(CCCCCCCC)CCCCCCCC [YK-403, di(heptadecan-9-yl) 8, 8′-(ethane-1,2-diyl-bis((2-hydroxyethyl)azanediyl))dioctanoate]	16.5	163	70.76	23.55	6.49	49.10	2.86%	28.64	28.90	45.80	28.45	24.65	25.84	54.43	16.62	23.56	42.01	9.60	29.79	49.42	cell survival rate higher than YK-418 [2]: 49.71%; cell survival rate higher than YK-419 [2]: 31.84%; cell survival rate higher than YK-420 [2]: 35.17%; cell survival rate higher than YK-421 [2]: 35.05%; cell survival rate higher than YK-424 [2]: 42.83%; cell survival rate higher than compound 21 [2]: 2.92%; cell survival rate higher than compound 23 [2]: 1.65%; cytotoxicity reduced compared with YK-411 [2]: 50%; transfection efficiency at different molar ratios of polymer-conjugated lipid DMG-PEG2000 to carrier [3]: same results; transfection effect at different molar ratios of cationic lipid, neutral lipid, structured lipid and polymer-conjugated lipid [3]: same results
CCCCCCCCC(CCCCCCCC)OC(=O)CCCCCN(CCO)CCN(CCO)CCCCCC(=O)OC(CCCCCCCC)CCCCCCCC [YK-401, di(heptadecan-9-yl) 6,6′-(ethane-1,2-diyl-bis((2-hydroxyethyl)azanediyl))dihexanoate]	17.7	152	75.21	28.00	10.94	53.55	4.31% and 7.31%	33.09	33.35	50.25	32.90	29.10	30.29	58.88	21.07	28.01	46.46	14.05	34.24	53.87	cell survival rate higher than YK-418 [2]: 54.16%; cell survival rate higher than YK-419 [2]: 36.29%; cell survival rate higher than YK-420 [2]: 39.62%; cell survival rate higher than YK-421 [2]: 39.50%; cell survival rate higher than YK-424 [2]: 47.28%; cell survival rate higher than compound 21 [2]: 7.37%; cell survival rate higher than compound 23 [2]: 6.10%; cytotoxicity reduced compared with YK-411 [2]: 50%; transfection efficiency at different molar ratios of polymer-conjugated lipid DMG-PEG2000 to carrier [3]: same results; transfection effect at different molar ratios of cationic lipid, neutral lipid, structured lipid and polymer-conjugated lipid [3]: same results
